Measurements from patent US20230312587A1, “PTERIDINONE COMPOUNDS AND USES THEREOF” (Vertex Pharmaceutical Incorporated, priority 2018, published 2023).
Like-named read-outs stand apart in the source and are kept apart here.

Legend:
Plk1 = Plk1 (Homo sapiens (Human), UniProt P53350); assay: PLK1 inhibition assay (radioactive-phosphate incorporation); type: biochemical; settings: Ki(app), read-out: PLK1 - 33P.ENZ - CB 10 Ki
Protocol: Compounds were screened for their ability to inhibit Plk1 using a radioactive-phosphate incorporation assay. Assays were carried out in a mixture of 25 mM HEPES (pH 7.5), 10 mM MgCl2, 25 mM NaCl, and 2 mM DTT. Final substrate concentrations were 20 μM [γ-33P]ATP (35mCi 33P ATP/mmol ATP, Perkin Elmer/Sigma Chemicals) and 9 uM Sam68 protein. Assays were carried out at room temperature in the presence of 15 nM Plk1. An assay stock buffer solution was prepared containing all of the reagents listed above, with the exception of ATP and the test compound of interest. 0.75 μL of DMSO stock containing serial dilutions of the test compound (typically starting from a final concentration of 10 μM with 2-fold serial dilutions—final DMSO concentration 1.5%) was placed in a 384 well plate followed by addition of 25 μL [γ-33P]ATP (final concentration 20 μM). The reaction was initiated by addition of 25 μL of the assay stock buffer solution.
The reaction was stopped after 45 minutes by the addition of 25 μL 30% trichloroacetic acid (TCA) containing 10 mM cold ATP. The entire quenched reaction was transferred to a 384-well glass fiber filter plate (Millipore, Cat no. MZFBNOW50). The plate was washed with 3×5% TCA. After drying, 40 μL of Ultima Gold liquid scintillation cocktail (Perkin Elmer) was added to the well prior to scintillation counting in a PerkinElmer TopCount.
After removing mean background values for all of the data points, Ki(app) data were calculated from non-linear regression analysis of the initial rate data using the Prism software package (GraphPad Prism, GraphPad Software, San Diego California, USA).

[1] = test system: β-catenin-TCF-mediated reporter transcription activity in Colo 205 cells; assay: Colo 205 reporter assay (TCF/LEF luciferase); type: cell-based; settings: Colo 205 TCF/LEF luciferase reporter, five hours after addition of compound, read-out: TCF reporter Colo205 IC50
How it was run: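 Luciferase signal from a TCF/LEF-driven reporter, stably integrated in Colo 205 colon cancer cells, was measured 5 h after compound addition.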

Sequence of Plk1 (P53350 whole entry, species assumed): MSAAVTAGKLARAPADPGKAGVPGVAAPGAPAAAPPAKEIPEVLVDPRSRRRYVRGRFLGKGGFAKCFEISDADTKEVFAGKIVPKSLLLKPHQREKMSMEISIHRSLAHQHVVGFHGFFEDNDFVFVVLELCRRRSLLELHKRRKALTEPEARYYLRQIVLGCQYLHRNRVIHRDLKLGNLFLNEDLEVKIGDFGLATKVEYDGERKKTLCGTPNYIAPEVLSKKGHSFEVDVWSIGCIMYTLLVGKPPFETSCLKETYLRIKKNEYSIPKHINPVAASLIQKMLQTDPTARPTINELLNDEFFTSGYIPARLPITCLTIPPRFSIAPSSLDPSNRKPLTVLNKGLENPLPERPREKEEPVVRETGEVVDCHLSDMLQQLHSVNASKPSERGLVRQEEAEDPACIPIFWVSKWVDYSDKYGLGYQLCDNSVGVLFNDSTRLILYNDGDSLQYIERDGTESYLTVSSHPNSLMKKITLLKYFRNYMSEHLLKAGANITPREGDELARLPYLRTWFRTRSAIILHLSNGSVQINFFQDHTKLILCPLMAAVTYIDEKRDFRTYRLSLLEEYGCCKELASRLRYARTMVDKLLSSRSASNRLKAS

Row | Ki (Plk1) [µM] | IC50 ([1]; Homo sapiens, COLO 205, 5 h) [µM] | IC50 [1] [µM] | Structure (SMILES)
1 | > 4 | < 0.3 | – | Cc1nc(N[C@@H]2CC[C@@H](Oc3cc(F)c(F)c(F)c3)C2)nc2c1NC(=O)[C@H](C)N2C [Compound 267, (S)-4,7,8-trimethyl-2-(((1R,3R)-3-(3,4,5-trifluorophenoxy)cyclopentyl)amino)-7,8-dihydropteridin-6(5H)-one]
2 | > 4 | < 0.3 | – | CCC[C@H]1C(=O)N(C)c2cnc(NCc3cnn(Cc4cc(F)c(F)c(F)c4)c3)nc2N1C [Compound 23, (7S)-5,8-dimethyl-7-propyl-2-(((1-(3,4,5-trifluorobenzyl)-1H-pyrazol-4-yl)methyl)amino)-7,8-dihydropteridin-6(5H)-one]
3 | > 4 | 0.3 to 1 | – | CCN1C(=O)[C@](C)(CC)N(CC)c2nc(NCc3cnn(Cc4ccc(F)cc4)c3)ncc21 [Compound 34, (7S)-5,7,8-triethyl-2-(((1-(4-fluorobenzyl)-1H-pyrazol-4-yl)methyl)amino)-7-methyl-7,8-dihydropteridin-6(5H)-one]
4 | > 4 | 0.3 to 1 | – | CC[C@H]1C(=O)N(CC)c2cnc(NCc3cnn(Cc4ccc(F)cc4)c3)nc2N1C [Compound 19, (7S)-5,7-Diethyl-2-(((1-(4-fluorobenzyl)-1H-pyrazol-4-yl)methyl)amino)-8-methyl-7,8-dihydropteridin-6(5H)-one]
5 | > 4 | 0.3 to 1 | – | CCC[C@H]1C(=O)N(C)c2cnc(NCc3cnn(Cc4ccc(F)cc4)c3)nc2N1C [Compound 24, (7S)-2-(((1-(4-fluorobenzyl)-1H-pyrazol-4-yl)methyl)amino)-5,8-dimethyl-7-propyl-7,8-dihydropteridin-6(5H)-one]
6 | > 4 | < 0.3 | – | CC[C@]1(C)C(=O)N(C)c2cnc(NCc3cnn(Cc4ccc(F)cc4)c3)nc2N1C [Compound 3, (7R)-7-ethyl-2-(((1-(4-fluorobenzyl)-1H-pyrazol-4-yl)methyl)amino)-5,7,8-trimethyl-7,8-dihydropteridin-6(5H)-one]
7 | > 4 | < 0.3 | – | Cc1nc(NCc2cnn([C@H]3C[C@H](c4ccc(F)cc4)C3)c2)nc2c1NC(=O)[C@H](C)N2C [Compound 112, (7S)-2-(((trans-1-(3-(4-fluorophenyl)cyclobutyl)-1H-pyrazol-4-yl)methyl)amino)-4,7,8-trimethyl-7,8-dihydropteridin-6(5H)-one]
8 | > 4 | < 0.3 | – | Cc1nc(NCc2cnn(Cc3ccc(C(F)(F)F)o3)c2)nc2c1NC(=O)[C@H](C)N2C [Compound 192, (7S)-4,7,8-trimethyl-2-(((1-((5-(trifluoromethyl)furan-2-yl)methyl)-1H-pyrazol-4-yl)methyl)amino)-7,8-dihydropteridin-6(5H)-one]
9 | > 4 | ≥ 5 | – | C[C@H]1C(=O)Nc2cnc(NCc3cnn(Cc4cc(F)c(O)c(F)c4)c3)nc2N1C [Compound 50, (7S)-2-(((1-(3,5-difluoro-4-hydroxybenzyl)-1H-pyrazol-4-yl)methyl)amino)-7,8-dimethyl-7,8-dihydropteridin-6(5H)-one]
10 | > 4 | 0.3 to 1 | – | Cc1nc(NCc2cnn(CC3CCC3)c2)nc2c1NC(=O)[C@H](C)N2C [Compound 5, (7S)-2-(((1-(cyclobutylmethyl)-1H-pyrazol-4-yl)methyl)amino)-4,7,8-trimethyl-7,8-dihydropteridin-6(5H)-one]
11 | > 4 | < 0.3 | – | CCN1C(=O)[C@H](C)N(C(C)C)c2nc(NCc3cnn(Cc4cc(F)c(F)c(F)c4)c3)ncc21 [Compound 51, (7S)-5-ethyl-8-isopropyl-7-methyl-2-(((1-(3,4,5-trifluorobenzyl)-1H-pyrazol-4-yl)methyl)amino)-7,8-dihydropteridin-6(5H)-one]
12 | > 4 | < 0.3 | – | Cc1noc(C)c1Cn1cc(CNc2nc(C)c3c(n2)N(C)[C@@H](C)C(=O)N3)cn1 [Compound 138, (7S)-2-(((1-((3,5-dimethylisoxazol-4-yl)methyl)-1H-pyrazol-4-yl)methyl)amino)-4,7,8-trimethyl-7,8-dihydropteridin-6(5H)-one]
13 | > 4 | < 0.3 | – | CCN1C(=O)[C@H](C)N(CC)c2nc(NCc3cnn(Cc4ccc(F)cc4)c3)ncc21 [Compound 30, (7S)-5,8-diethyl-2-(((1-(4-fluorobenzyl)-1H-pyrazol-4-yl)methyl)amino)-7-methyl-7,8-dihydropteridin-6(5H)-one]
14 | > 4 | < 0.3 | – | CCN1C(=O)[C@H](CCO)N(CC)c2nc(NCc3cnn(Cc4cc(F)c(OC)c(F)c4)c3)ncc21 [Compound 48, (7S)-2-(((1-(3,5-difluoro-4-methoxybenzyl)-1H-pyrazol-4-yl)methyl)amino)-5,8-diethyl-7-(2-hydroxyethyl)-7,8-dihydropteridin-6(5H)-one]
15 | > 4 | < 0.3 | – | Cc1nc(NCc2ccc(Oc3ccc(F)cc3)nc2)nc2c1NC(=O)[C@H](C)N2C [Compound 54, (7S)-2-(((6-(4-fluorophenoxy)pyridin-3-yl)methyl)amino)-4,7,8-trimethyl-7,8-dihydropteridin-6(5H)-one]
16 | > 4 | < 0.3 | – | COc1c(F)cc(Cn2cc(CNc3ncc4c(n3)N(C)[C@@H](C)C(=O)N4)cn2)cc1F [Compound 44, (7S)-2-(((1-(3,5-difluoro-4-methoxybenzyl)-1H-pyrazol-4-yl)methyl)amino)-7,8-dimethyl-7,8-dihydropteridin-6(5H)-one]
17 | > 4 | < 0.3 | – | CCN1c2nc(NCc3cnn(Cc4ccc(F)cc4)c3)ncc2N(C)C(=O)[C@@H]1C [Compound 22, (7S)-8-ethyl-2-(((1-(4-fluorobenzyl)-1H-pyrazol-4-yl)methyl)amino)-5,7-dimethyl-7,8-dihydropteridin-6(5H)-one]
18 | > 4 | – | 0.3 to 1 | CCN1C(=O)[C@@](C)(CC)N(CC)c2nc(NCc3cnn(Cc4ccc(F)cc4)c3)ncc21 [Compound 234, (7R)-5,7,8-triethyl-2-(((1-(4-fluorobenzyl)-1H-pyrazol-4-yl)methyl)amino)-7-methyl-7,8-dihydropteridin-6(5H)-one]
19 | > 4 | < 0.3 | – | Cc1nc(NCc2cnn(Cc3ccc(F)cc3)c2)nc2c1NC(=O)C1(CC1)N2C [Compound 221, 2′-(((1-(4-fluorobenzyl)-1H-pyrazol-4-yl)methyl)amino)-4′,8′-dimethyl-5′,8′-dihydro-6′H-spiro[cyclopropane-1,7′-pteridin]-6′-one]
20 | > 4 | < 0.3 | – | CC[C@H]1C(=O)N(C)c2cnc(NCc3cnn(Cc4cc(F)c(F)c(F)c4)c3)nc2N1C [Compound 15, (7S)-7-Ethyl-5,8-dimethyl-2-(((1-(3,4,5-trifluorobenzyl)-1H-pyrazol-4-yl)methyl)amino)-7,8-dihydropteridin-6(5H)-one]
21 | > 4 | < 0.3 | – | Cc1nc(NCc2cnn(Cc3cccc(C(F)(F)F)c3)c2)nc2c1NC(=O)[C@H](C)N2C [Compound 47, (7S)-4,7,8-trimethyl-2-(((1-(3-(trifluoromethyl)benzyl)-1H-pyrazol-4-yl)methyl)amino)-7,8-dihydropteridin-6(5H)-one]
22 | > 4 | < 0.3 | – | CN1C(=O)C(C)(C)N(C)c2nc(NCc3cnn(Cc4ccc(F)cc4)c3)ncc21 [Compound 224, 2-(((1-(4-fluorobenzyl)-1H-pyrazol-4-yl)methyl)amino)-5,7,7,8-tetramethyl-7,8-dihydropteridin-6(5H)-one]
23 | > 4 | 0.3 to 1 | – | CC[C@H]1C(=O)N(C)c2cnc(NCc3cnn(Cc4ccc(F)cc4)c3)nc2N1C(C)C [Compound 32, (7S)-7-ethyl-2-(((1-(4-fluorobenzyl)-1H-pyrazol-4-yl)methyl)amino)-8-isopropyl-5-methyl-7,8-dihydropteridin-6(5H)-one]
24 | > 4 | < 0.3 | – | Cc1nc(NCc2cnn(C3Cc4ccccc4C3)c2)nc2c1NC(=O)[C@H](C)N2C [Compound 116, (7S)-2-(((1-(2,3-dihydro-1H-inden-2-yl)-1H-pyrazol-4-yl)methyl)amino)-4,7,8-trimethyl-7,8-dihydropteridin-6(5H)-one]
25 | > 4 | < 0.3 | – | Cc1nc(NCc2cnn(CCC3CCCCC3)c2)nc2c1NC(=O)[C@H](C)N2C [Compound 113, (7S)-2-(((1-(2-cyclohexylethyl)-1H-pyrazol-4-yl)methyl)amino)-4,7,8-trimethyl-7,8-dihydropteridin-6(5H)-one]
